Test results from patent publication US8921405B2, “Compounds” (Orexo AB, priority 2009, dated 2014).

Molecular target: T1, recombinant human mPGES-1 (Homo sapiens, UniProt O14684)
T1 construct: made in house; host or cells: Rosetta E. coli (membrane/microsome fraction)
T1 sequence (O14684 1-152): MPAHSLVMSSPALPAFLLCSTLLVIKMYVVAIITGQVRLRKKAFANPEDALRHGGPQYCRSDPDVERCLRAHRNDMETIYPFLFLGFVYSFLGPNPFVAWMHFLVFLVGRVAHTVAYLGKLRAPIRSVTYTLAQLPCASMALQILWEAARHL
Experiment: mPGES-1 HTRF assay (inhibition of PGE2 formation from PGH2)
Type: biochemical
Conditions: HTRF assay
Method in brief: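 Microsomes of E. coli expressing human mPGES-1, in 0.1 M KPi pH 7.4 with 2.5 mM GSH, preincubated 25 min at room temperature with inhibitor, then given PGH2 for 1 min before FeCl2 acidic stop. PGE2 quantified by HTRF (665/620 nm ratio) against synthetic PGE2 standard curve; percent inhibition versus controls.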

Structure (SMILES)	IC50 [nM]
Cn1c(Nc2cc(CNS(=O)(=O)C(C)(C)C)ccc2Cl)nc2cc(C(=O)Nc3ccc(Br)cc3)c(OCC(F)F)cc21 [Example 82, N-(4-Bromo-phenyl)-2-(2-chloro-5-{[(tert-butylsulfonyl)-amino]-methyl}-phenylamino)-6-(2,2-difluoro-ethoxy)-1-methyl-1H-benzimidazole-5-carboxylic acid amide]	3
Cn1c(Nc2cc(CNC(=O)C3(C(F)(F)F)CC3)ccc2C(F)(F)F)nc2cc(C(=O)Nc3ccc(Br)cc3)c(OCC(F)F)cc21 [Example 83, N-(4-Bromo-phenyl)-2-(2-trifluoromethyl-5-{[(1-trifluoromethyl-cyclopropanecarbonyl)-amino]-methyl}-phenylamino)-6-(2,2-difluoro-ethoxy)-1-methyl-1H-benzimidazole-5-carboxylic acid amide]	3
Cn1c(Nc2cc(CNC(=O)C3(C(F)(F)F)CC3)c(F)cc2Cl)nc2cc(C(=O)N[C@H]3CC[C@H](C(F)(F)F)CC3)c(OCC(F)F)cc21 [Example 84, 2-(2-Chloro-4-fluoro-5-{[(1-(trifluoromethyl)cyclopropanecarbonyl)amino]methyl}-phenylamino)-6-(2,2-difluoroethoxy)-1-methyl-N-(trans-4-trifluoromethyl-cyclohex-1-yl)-1 H-benzo[d]imidazole-5-carboxamide]	4
Cn1c(Nc2cc(CNC(=O)C3(C(F)(F)F)CC3)c(F)cc2Cl)nc2cc(C(=O)Nc3ccc(Br)cc3)c(OCC(F)F)cc21 [Example 85, N-(4-Bromophenyl)-2-(2-chloro-4-fluoro-5-{[(1-trifluoromethyl-cyclopropanecarbonyl)amino]methyl}phenylamino)-6-(2,2-difluoroethoxy)-1-methyl-1H-benzo[d]imidazole-5-carboxamide]	2
Cn1c(Nc2cc(CNC(=O)C(C)(C)C)ccc2Cl)nc2cc(C(=O)Nc3ccc(F)c(Cl)c3)c(OCC(F)F)cc21 [Example 86, N-(3-Chloro-4-fluoro-phenyl)-2-(2-chloro-5-{[(tert-butylcarbonyl)-amino]-methyl}-phenylamino)-6-(2,2-difluoro-ethoxy)-1-methyl-1H-benzimidazole-5-carboxylic acid amide]	1
Cn1c(Nc2cc(CNC(=O)C(C)(C)C)ccc2Cl)nc2cc(C(=O)NCC3CC3(C)C)c(OCC(F)F)cc21 (stereo not drawn) [Example 88, N-(2,2-Dimethylcyclopropyl-methyl)-2-(2-chloro-5-{[(tert-butylcarbonyl)-amino]-methyl}-phenylamino)-6-(2,2-difluoro-ethoxy)-1-methyl-1H-benzimidazole-5-carboxylic acid amide]	2
Cn1c(Nc2cc(CNC(=O)C(C)(C)C)ccc2Cl)nc2cc(C(=O)NCC3CCC3)c(OCC(F)F)cc21 [Example 89, N-(Cyclobutylmethyl)-2-(2-chloro-5-{[(tert-butylcarbonyl)-amino]-methyl}-phenylamino)-6-(2,2-difluoro-ethoxy)-1-methyl-1H-benzimidazole-5-carboxylic acid amide]	2
Cn1c(Nc2cc(CNC(=O)C(C)(C)C)ccc2Cl)nc2cc(C(=O)NCC#Cc3ccccc3)c(OCC(F)F)cc21 [Example 90, N-(3-Phenylpropargyl)-2-(2-chloro-5-{[(tert-butylcarbonyl)-amino]-methyl}-phenylamino)-6-(2,2-difluoro-ethoxy)-1-methyl-1H-benzimidazole-5-carboxylic acid amide]	1
COc1cc2[nH]c(Nc3cc(CNC(=O)OC(C)(C)C)ccc3C(F)(F)F)nc2cc1C(=O)N[C@H]1CC[C@H](C(F)(F)F)CC1 [Example 91, 2-({5-[(tert.Butoxycarbonyl)amino]methyl}-2-trifluoromethyl-phenylamino)-6-methoxy-N-(trans-4-trifluoromethyl-cyclohex-1-yl)-1H-benzo[d]imidazole-5-carboxamide]	4
COc1cc2[nH]c(Nc3cc(CNC(=O)C(N)C(F)(F)F)ccc3C(F)(F)F)nc2cc1C(=O)N[C@H]1CC[C@H](C(F)(F)F)CC1 (stereo partly drawn) [Example 92, 2-({5-[(2-Amino-3,3,3-trifluoro-propionyl)amino]methyl}-2-trifluoromethyl-phenylamino)-6-methoxy-N-(trans-4-trifluoromethyl-cyclohex-1-yl)-1H-benzo[d]imidazole-5-carboxamide]	7
COc1cc2[nH]c(Nc3cc(CNC(=O)C4(C(F)(F)F)CC4)ccc3C(F)(F)F)nc2cc1C(=O)N[C@H]1CC[C@H](C(F)(F)F)CC1 [Example 93, N-(trans-4-Trifluoromethyl-cyclohex-1-yl)-2-(2-trifluoromethyl-5-{[(1-trifluoromethylcyclopropane-carbonyl)amino]-methyl}-phenylamino)-6-methoxy-1H-benzimidazole-5-carboxylic acid amide]	2
COc1cc2[nH]c(Nc3cc(CNC(=O)C4(O)CC4)ccc3C(F)(F)F)nc2cc1C(=O)N[C@H]1CC[C@H](C(F)(F)F)CC1 [Example 94, N-(trans-4-Trifluoromethyl-cyclohex-1-yl)-2-(2-trifluoromethyl-5-{[(1-hydroxy-cyclopropane-carbonyl)amino]-methyl}-phenylamino)-6-methoxy-1H-benzimidazole-5-carboxylic acid amide]	3
Cn1c(Nc2cc(CNC(=O)C(C)(C)C)ccc2C(F)(F)F)nc2cc(C(=O)N[C@H]3CC[C@H](C(F)(F)F)CC3)c(OCC(F)F)cc21 [Example 95, N-(trans-4-Trifluoromethyl-cyclohex-1-yl)-1-methyl-2-(2-trifluoromethyl-5-{[(tert-butylcarbonyl)-amino]-methyl}-phenylamino)-6-(2,2-difluoro-ethoxy)-1H-benzimidazole-5-carboxylic acid amide]	1
CC(C)(C)C(=O)NCc1ccc(C(F)(F)F)c(Nc2nc3cc(C(=O)N[C@H]4CC[C@H](C(F)(F)F)CC4)c(OCC(F)F)cc3[nH]2)c1 [Example 96, N-(trans-4-Trifluoromethyl-cyclohex-1-yl)-2-(2-trifluoromethyl-5-{[(tert-butylcarbonyl)-amino]-methyl}-phenylamino)-6-(2,2-difluoro-ethoxy)-1H-benzimidazole-5-carboxylic acid amide]	1
Cn1c(Nc2cc(CNC(=O)C(C)(C)C)ccc2Cl)nc2cc(C(=O)N[C@H]3CC[C@H](C(F)(F)F)CC3)c(OCCF)cc21 [Example 97, N-(trans-4-Trifluoromethyl-cyclohex-1-yl)-1-methyl-2-(2-chloro-5-{[(tert-butylcarbonyl)-amino]-methyl}-phenylamino)-6-(2-fluoro-ethoxy)-1H-benzimidazole-5-carboxylic acid amide]	5
Cn1c(Nc2cc(CNC(=O)C(C)(C)C)ccc2Cl)nc2cc(C(=O)N[C@H]3CC[C@H](C(F)(F)F)CC3)c(OCC(F)(F)F)cc21 [Example 98, N-(trans-4-Trifluoromethyl-cyclohex-1-yl)-1-methyl-2-(2-chloro-5-{[(tert-butylcarbonyl)-amino]-methyl}-phenylamino)-6-(2,2,2-trifluoro-ethoxy)-1H-benzimidazole-5-carboxylic acid amide]	6
COc1ccc(CNC(=O)C(C)(C)C)cc1Nc1nc2cc(C(=O)N[C@H]3CC[C@H](C(F)(F)F)CC3)c(Cl)cc2[nH]1 [Example 99, N-(trans-4-Trifluoromethyl-cyclohex-1-yl)-2-(2-methoxy-5-{[(tert-butylcarbonyl)-amino]-methyl}-phenylamino)-6-chloro-1H-benzimidazole-5-carboxylic acid amide]	> 100
CC(C)(C)C(=O)NCc1ccc(Cl)c(Nc2nc3cc(C(=O)Nc4ccc(Br)cc4)c(OCC(F)F)cc3n2CC(F)F)c1 [Example 100, N-(4-Bromo-phenyl)-2-(2-chloro-5-{[(tert-butylcarbonyl)-amino]-methyl}-phenylamino)-6-(2,2-difluoro-ethoxy)-1-(2,2-difluoroethyl)-1H-benzimidazole-5-carboxylic acid amide]	5
